# What was measured:
# [1] = test system: F18-positive E. coli strain 107/86; test: Carbohydrate inhibition in the in vitro villous adhesion assay (bacteria pre-incubated with saccharide); type: cell-based, Escherichia coli; details: for Inhibition of F18+ E. coli adherence to porcine intestinal villi: Example 18, 1 mg saccharide in 100 μl PBS
# Text: (§1) The nature of the F18R on porcine small intestinal villous enterocytes was investigated using an in vitro villous adhesion inhibition assay (Cox, E., Houvenaghel, A., 1993. Vet. Microbiol. 34(1), 7-18; Verdonck, F., Cox, E., van Gog, K., Van der Stede, Y., Duchateau, L., Deprez, P., Goddeeris, B. M., 2002. Vaccine 20(23-24), 2995-3004). Briefly, a 20 cm intestinal segment was collected from the mid jejunum of a euthanized pig, rinsed three times with ice cold PBS, and fixed with Krebs-Henseleit buffer (160 mM, pH 7.4) containing 1% (v/v) formaldehyde for 30 min at 4° C. Thereafter, the villi were gently scraped from the mucosae with a glass slide and stored in Krebs-Henseleit buffer at 4° C. Treatment of villi with acetone, methanol, 1% Triton® X-100, 10 mM NaIO4 in 0.2M sodium acetate, pH 4.5, or 0.2M sodium acetate, pH 4.5, without NaIO4, respectively, was performed at room temperature on a rotating wheel in a volume of 500 μl during 1 h. Next, the villi were washed 6 times with Krebs-Henseleit buffer followed by addition of 4×10^8 bacteria of the F18 positive reference E. coli strain (107/86), or the F4ac-expressing E. coli strain GIS 26, to an average of 50 villi in a total volume of 500 μl PBS, supplemented with 1% (w/v) D-mannose in order to prevent adhesion mediated by type 1 pili. These mixtures were incubated at room temperature for 1 h while being gently shaken. Villi were examined by phase-contrast microscopy at a magnification of 600, and the number of bacteria adhering along 50 μm brush border was quantitatively evaluated by counting the number of adhering bacteria at 20 randomly selected places, after which the mean bacterial adhesion was calculated.
# The F18-positive E. coli strain 107/86 (8×10^7 bacteria) was incubated with different concentrations (10 mg/ml, 1 mg/ml, […]) of blood group H type 1 pentasaccharide (Fucα2Galβ3GlcNAcβ3Galβ4Glc) or lacto-N-tetraose saccharide (Galβ3GlcNAcβ3Galβ4Glc) (Glycoseparations, Moscow, Russia) in a final volume of 100 μl PBS, for 1 h at room temperature, while being gently shaken. The mixtures were then added to the villi, and again incubated for 1 h at room temperature with gentle shaking. Thereafter, the villi were examined by phase-contrast microscopy at a magnification of 600, and the number of bacteria adhering along a […] brush border was quantitatively evaluated by counting the number of adhering bacteria at 20 randomly selected places, after which the mean bacterial adhesion was calculated. Villi of two different F18R-positive pigs were used, and the countings were performed in triplicate.
# The F18-positive E. coli strain 107/86 (8×10^7 bacteria) was incubated with 1 mg of blood group H type 1 pentasaccharide (H5-1, Fucα2Galβ3GlcNAcβ3Galβ4Glc), blood group A type 1 hexasaccharide (A6-1, GalNAcα3(Fucα2)Galβ3GlcNAcβ3Galβ4Glc), blood group B type 1 hexasaccharide (B6-1, Galα3(Fucα2)Galβ3GlcNAcβ3Galβ4Glc) or lacto-N-tetraose saccharide (LNT, Galβ3GlcNAcβ3Galβ4Glc) (Elicityl, Grenoble, France) in a final volume of 100 μl PBS, for 1 h at room temperature, while being gently shaken. The mixtures were then added to the villi, and again incubated for 1 h at room temperature with gentle shaking. Thereafter, the villi were examined by phase-contrast microscopy, and adhering bacteria were quantified as described above. Villi of two different F18R-positive pigs were used, and the countings were performed in triplicate.
# The mixtures were then added to the villi, and again incubated for 1 h at room temperature with gentle shaking. Thereafter, the villi were examined by phase-contrast microscopy, and adhering bacteria were quantified as described above. Villi of one F18R-positive pig was used, and the countings were performed in duplicate.
# [2] = test system: F18 positive reference E. coli strain (107/86); test: In vitro villous adhesion assay after treatment of porcine villi with agents; type: cell-based, Escherichia coli; details: villi of four pigs treated 1 h at room temperature; 1% Triton X-100; 10 mM NaIO4 in 0.2M sodium acetate pH 4.5
# Text: as §1
# (§2) To examine the character of the F18R, intestinal villi isolated from four pigs were treated with different agents that affect lipids or carbohydrates on the enterocyte cell membrane. Treatment was followed by assessment of adhesion of F18-fimbriated E. coli to the villus epithelium.
# [3] = test system: F4ac-expressing E. coli strain GIS 26; test: In vitro villous adhesion assay after treatment of porcine villi with agents (control strain); type: cell-based, Escherichia coli; details: villi treated 1 h at room temperature; 1% Triton X-100; 10 mM NaIO4 in 0.2M sodium acetate pH 4.5
# Text: as §1, §2
# [4] = test system: recombinant F18 fimbriae-expressing Escherichia coli (pIH120); test: Chromatogram binding assay: 35S-labelled F18 fimbriae-expressing E. coli to glycosphingolipids on thin-layer chromatograms; details: for Binding of F18-fimbriated E. coli (in words): chromatogram binding assay, F18-expressing strain HB101(pIH120); for Detection limit of binding of F18-fimbriated E. coli: dilutions of glycosphingolipids on thin-layer chromatograms
# Procedure: Recombinant E. coli strains expressing whole F18 fimbriae (HB101(pIH120), or F18 fimbriae with deletion of the FedF adhesive subunit (HB101(pIH126)) (Imberechts et al., 1992; 1996), were grown on Iso Sensitest agar plates (Oxoid, Basingstoke, Hampshire, England) supplemented with ampicillin (100 μg/ml) at 37° C. over night. For metabolic labeling, the culture plates were supplemented with 10 μl ^35S-methionine (400 μCi; Amersham Pharmacia Biotech). Bacteria were harvested, washed three times in PBS, and resuspended in PBS containing 2% (w/v) bovine serum albumin, 0.1% (w/v) NaN3 and 0.1% (w/v) Tween 20 (BSA/PBS/TWEEN) to a bacterial density of 1×10^8 colony forming units/ml.
# Aluminium- or glass-backed silica gel 60 high performance thin-layer chromatography plates (Merck, Darmstadt, Germany) were used for thin-layer chromatography, and eluted with chloroform/methanol/water (60:35:8, by volume) as solvent system. The different glycosphingolipids were applied to the plates in quantities of 0.002-4 μg of pure glycosphingolipids and 40 μg of glycosphingolipid mixtures. Chemical detection was done with anisaldehyde (Waldi D, 1962. Sprühreagentien für die dünnschicht-chromatographie, p. 496-515. In Stahl, E. (ed.), Dünnschicht-Chromatographie. Springer-Verlag, Berlin).
# Binding of radiolabelled bacteria to glycosphingolipids on thin-layer chromatograms was done as described previously (Hansson G C, Karlsson K-A, Larson G, Strömberg N, Thurin J, 1985. Anal. Biochem. 146:158-163). Dried chromatograms were dipped in diethylether/n-hexane (1:5 v/v) containing 0.5% (w/v) polyisobutylmethacrylate for 1 min, dried, and then blocked with BSA/PBS/TWEEN for 2 h at room temperature. Thereafter, the plates were incubated with ^35S-labeled bacteria (1-5×10^6 cpm/ml) diluted in BSA/PBS/TWEEN for another 2 h at room temperature. After washing six times with PBS, and drying, the thin-layer plates were autoradiographed for 12 h using XAR-5 x-ray films (Eastman Kodak, Rochester, N.Y.).
# [5] = 1 h pre-incubation, villi of two pigs
# [6] = Example 17, 1 mg/ml saccharide, 100 μl PBS, 1 h pre-incubation, villi of two pigs
# [7] = Example 17, 10 mg/ml saccharide, 100 μl PBS, 1 h pre-incubation, villi of two pigs
# [8] = Example 17, 100 mg/ml saccharide (so in the source), 100 μl PBS, 1 h pre-incubation, villi of two pigs
compound,measurement,setting,value
"CC(=O)NC1C(OC2C(O)C(CO)OC(OC3C(O)C(CO)OC(OC4C(O)C(CO)OC(OC5C(CO)OC(O)C(O)C5O)C4O)C3NC(C)=O)C2OC2OC(C)C(O)C(O)C2O)OC(CO)C(O)C1O (centres unmarked) [A6-1, GalNAcα3(Fucα2)Galβ3GlcNAcβ3Galβ4Glc]",Inhibition of F18+ E. coli adherence to porcine intestinal villi,[1]; [5],72.9%
"CC(=O)NC1C(OC2C(O)C(CO)OC(OC3C(CO)OC(O)C(O)C3O)C2O)OC(CO)C(O)C1OC1OC(CO)C(O)C(OC2OC(CO)C(O)C(O)C2O)C1OC1OC(C)C(O)C(O)C1O (centres unmarked) [B6-1, Galα3(Fucα2)Galβ3GlcNAcβ3Galβ4Glc]",Inhibition of F18+ E. coli adherence to porcine intestinal villi,[1]; [5],86.8%
"CC(=O)N[C@H]1[C@H](O[C@H]2[C@@H](O)[C@@H](CO)O[C@@H](O[C@H]3[C@H](O)[C@@H](O)C(O)O[C@@H]3CO)[C@@H]2O)O[C@H](CO)[C@@H](O)[C@@H]1O[C@@H]1O[C@H](CO)[C@H](O)[C@H](O)[C@H]1O[C@@H]1O[C@@H](C)[C@@H](O)[C@@H](O)[C@@H]1O (some centres unmarked) [H5-1, Fucα2Galβ3GlcNAcβ3Galβ4Glc]",Reduction (inhibition) of adherence of F18-positive E. coli to porcine intestinal villi,[1]; [6],68.5%
same,Reduction (inhibition) of adherence of F18-positive E. coli to porcine intestinal villi,[1]; [7],87.1%
same,Inhibition of adherence of F18-positive E. coli to porcine intestinal villi,[1]; [8],1.4%
same,Inhibition of F18+ E. coli adherence to porcine intestinal villi,[1]; [5],52.4%
"CC(=O)N[C@H]1[C@H](O[C@H]2[C@@H](O)[C@@H](CO)O[C@@H](O[C@H]3[C@H](O)[C@@H](O)C(O)O[C@@H]3CO)[C@@H]2O)O[C@H](CO)[C@@H](O)[C@@H]1O[C@@H]1O[C@H](CO)[C@H](O)[C@H](O)[C@H]1O (some centres unmarked) [LNT, Galβ3GlcNAcβ3Galβ4Glc, reference compound]",Reduction (inhibition) of adherence of F18-positive E. coli to porcine intestinal villi,[1]; [6],5.8%
same,Reduction (inhibition) of adherence of F18-positive E. coli to porcine intestinal villi,[1]; [7],5.8%
same,Inhibition of adherence of F18-positive E. coli to porcine intestinal villi,[1]; [8],4.2%
same,Inhibition of F18+ E. coli adherence to porcine intestinal villi,[1]; [5],2.8%
[Na+].[O-][I+3]([O-])([O-])[O-] [NaIO4],Adhesion of F18-fimbriated E. coli to porcine intestinal villi after treatment of the villi,[2],completely abolished
same,Adhesion of control F4ac-fimbriated E. coli strain to porcine intestinal villi after treatment of the villi,[3],abolished
CC(C)=O [acetone],Adhesion of F18-fimbriated E. coli to porcine intestinal villi after treatment of the villi,[2],completely abolished
same,Adhesion of control F4ac-fimbriated E. coli strain to porcine intestinal villi after treatment of the villi,[3],no or only little effect
"C[C@@H]1O[C@@H](O[C@H]2C(O)O[C@H](CO)[C@H](O)[C@@H]2O)[C@@H](O)[C@H](O)[C@@H]1O (some centres unmarked) [blood group H disaccharide, Fucα2Gal]",Inhibition of adherence of F18-positive E. coli to porcine intestinal villi,"[1]; Example 21, 0.2 mg in 100 μl PBS, villi of one pig",5.1%
same,Reduction of adherence of F18-positive E. coli to porcine intestinal villi,"[1]; Example 21, 1 mg in 100 μl PBS, villi of one pig",83.7%
"Fucα2Galβ3(Fucα4)GlcNAcβ3Galβ4Glcβ1Cer [No. 22, reference compound]",Binding of F18-fimbriated E. coli (in words),[4],not recognized
"Fucα2Galβ3GalNAcβ4Galβ4Glcβ1Cer [No. 11, reference compound]",Binding of F18-fimbriated E. coli (in words),[4],absence of binding
Fucα2Galβ3GlcNAcβ3Galβ4Glcβ1Cer [No. 23],Binding of F18-fimbriated E. coli (in words),[4]; listed as H type 1 pentaglycosylceramide,bound
same,Detection limit of binding of F18-fimbriated E. coli,[4],2 µg
Fucα2Galβ3GlcNAcβ3Galβ4Glcβ1Cer [O-I],Binding of F18-fimbriated E. coli (in words),[4],F18 fimbriae-binding
"Fucα2Galβ4GlcNAcβ3Galβ4Glcβ1Cer [No. 14, reference compound]",Binding of F18-fimbriated E. coli (in words),[4],no type 2 core counterparts of these compounds were recognized
GalNAcα3(Fucα2)Galβ3(Fucα4)GlcNAcβ3Galβ4Glcβ1Cer [No. 26],Binding of F18-fimbriated E. coli (in words),[4],bound
same,Detection limit of binding of F18-fimbriated E. coli,[4],0.8 µg
GalNAcα3(Fucα2)Galβ3GalNAcβ3Galα4Galβ4Glcβ1Cer [No. 32],Detection limit of binding of F18-fimbriated E. coli,[4],approximately 0.8 μg
GalNAcα3(Fucα2)Galβ3GlcNAcβ3Galβ4Glcβ1Cer [A-I],Binding of F18-fimbriated E. coli (in words),[4],F18-fimbriated E. coli binding
GalNAcα3(Fucα2)Galβ3GlcNAcβ3Galβ4Glcβ1Cer [No. 25],Binding of F18-fimbriated E. coli (in words),[4]; listed as A type 1 hexaglycosylceramide,bound
same,Detection limit of binding of F18-fimbriated E. coli,[4],approximately 0.08 μg
"GalNAcα3(Fucα2)Galβ4(Fucα3)GlcNAcβ3Galβ4Glcβ1Cer [No. 19, reference compound]",Binding of F18-fimbriated E. coli (in words),[4],no type 2 core counterparts of these compounds were recognized
"GalNAcα3(Fucα2)Galβ4GlcNAcβ3Galβ4Glcβ1Cer [No. 17, reference compound]",Binding of F18-fimbriated E. coli (in words),[4],no type 2 core counterparts of these compounds were recognized
Galα3(Fucα2)Galβ3(Fucα4)GlcNAcβ3Galβ4Glcβ1Cer [No. 27],Binding of F18-fimbriated E. coli (in words),[4],bound
Galα3(Fucα2)Galβ3GlcNAcβ3Galβ4Glcβ1Cer [No. 24],Binding of F18-fimbriated E. coli (in words),[4],bound
same,Detection limit of binding of F18-fimbriated E. coli,[4],approximately 0.08 μg
"Galα3(Fucα2)Galβ4GlcNAcβ3Galβ4Glcβ1Cer [No. 16, reference compound]",Binding of F18-fimbriated E. coli (in words),[4],no type 2 core counterparts of these compounds were recognized
"Galβ3GlcNAcβ3Galβ4Glcβ1Cer [No. 20, reference compound]",Binding of F18-fimbriated E. coli (in words),[4],devoid of FedF-mediated binding activity

# — US8703722B2, “Inhibitors of F18+ E coli binding” (priority 2008, dated 2014)
